# Measurements as given in patent US6218425A, “8-substituted B-nor-6-Thiaequilenin compounds having activity as selective estrogen receptor modulators” (Eli Lilly and Company, priority 1997, dated 2001).
# Legend:
# ovariectomized rats = experiment: Ovariectomized rat model of postmenopausal hyperlipidemia (serum cholesterol, uterine weight, uterine eosinophil infiltration); format: in vivo; conditions: for Serum Cholesterol % Decrease / Uterine Weight Increase: versus ovariectomized controls
# Experimental: Experimental models of postmenopausal hyperlipidemia are known in the art.
# This uterine response to estrogen is well recognized in the art.
# As expressed in the data below, estrogenicity also was assessed by evaluating the response of eosinophil infiltration into the uterus.
# The data presented in Table 2 reflect the response per treatment group.
# estrogen receptor = estrogen receptor (Homo sapiens, UniProt P03372); conditions: competition with 0.5 nM 3H-17β-estradiol, MCF-7 lysate protein, 18 hours at 5° C.
# Experimental: Representative compounds of the present invention were tested in an estrogen receptor binding assay in which the test compounds were allowed to compete for binding with tritiated 17β-estradiol.
# In the assay, serial dilutions of the test compound were mixed with 0.5 nM of ^3 H-17β-estradiol, along with 0.5 mg/mL of protein from MCF-7 lysates, to a total volume of 0.14 mL. Binding was allowed to take place for 18 hours at 5° C., followed by the addition of 0.07 mL of dextran/charcoal and centrifugation to remove non-bound radioligand. Aliquots of supernate containing bound radioligand were mixed with scintillant and counted. Relative binding affinity (RBA) was calculated as: [formula]
# [1] = system: MCF-7 breast adenocarcinoma cells; experiment: MCF-7 Proliferation Assay; format: cell-based; conditions: dose level of 500 nM
# Experimental: A. MCF-7 Proliferation Assay Test Procedure MCF-7 breast adenocarcinoma cells (ATCC HTB 22) are maintained in MEM (minimal essential medium, phenol-red free, Sigma St. Louis Mo.) supplemented with 10% fetal bovine serum (FBS) (v/v), L-glutamine (2 mM), sodium pyruvate ([…]), HEPES (10 mM), non-essential amino acids, and bovine insulin (1 ug/mL). Ten days prior to the assay, the MCF-7 cells are switched to maintenance medium supplemented with 10% dextran-coated charcoal stripped fetal bovine serum (DCC-FBS) assay medium in place of the 10% FBS to deplete internal stores of estrogen. MCF-7 cells are removed from the maintenance flasks using a cell dissociating medium (Ca/Mg free HBSS; phenol-red free) supplemented with 10 mM HEPES and 2 mM EDTA. Cells are washed twice with the assay medium and adjusted to 80,000 cells/mL. Approximately 100 uL (8,000 cells)are added to a flat-bottomed micro culture well (Costar 3596) and incubated at 37° C. in a 5% CO2 humidified incubator for 48 hours to allow cell adherence and equilibrium after transfer. […] Samples are counted by liquid scintillation. Fifty percent inhibitory concentration of the test drugs (IC50) are determined versus the control (DMSO).
# Chain of estrogen receptor (P03372 whole entry): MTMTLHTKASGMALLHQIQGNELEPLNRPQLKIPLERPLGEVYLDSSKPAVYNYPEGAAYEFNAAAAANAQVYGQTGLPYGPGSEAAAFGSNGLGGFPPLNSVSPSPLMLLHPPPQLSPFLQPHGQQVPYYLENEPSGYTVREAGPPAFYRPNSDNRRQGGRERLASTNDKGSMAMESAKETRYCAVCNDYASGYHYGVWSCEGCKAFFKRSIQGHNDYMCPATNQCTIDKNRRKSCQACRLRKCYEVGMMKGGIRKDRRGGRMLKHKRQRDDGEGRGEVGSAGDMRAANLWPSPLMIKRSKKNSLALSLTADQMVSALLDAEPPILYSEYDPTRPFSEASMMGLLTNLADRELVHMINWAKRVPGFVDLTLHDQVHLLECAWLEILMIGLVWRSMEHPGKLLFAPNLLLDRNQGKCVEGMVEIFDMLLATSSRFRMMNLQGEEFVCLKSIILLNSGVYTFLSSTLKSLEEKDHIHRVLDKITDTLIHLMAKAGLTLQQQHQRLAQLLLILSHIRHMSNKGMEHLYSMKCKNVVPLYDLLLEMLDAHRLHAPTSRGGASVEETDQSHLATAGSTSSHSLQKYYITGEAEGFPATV
SMILES,eosinophil infiltration into the uterus (in words) (ovariectomized rats; EE2 group),"Uterine Eosinophil (Vmax) (eosinophil peroxidase, Vmaximum) (ovariectomized rats; dose 0.1 mg/kg)",Serum Cholesterol % Decrease (ovariectomized rats; dose 0.1 mg/kg),Uterine Weight Increase (ovariectomized rats; dose 0.1 mg/kg),serum cholesterol (in words) (ovariectomized rats; orally administered at 0.1 mg/kg/day),"uterine weight (in words) (ovariectomized rats; orally at 0.1 mg/kg/day, versus ovariectomized animals)","Uterine Eosinophil (Vmax) (eosinophil peroxidase, Vmaximum) (ovariectomized rats; dose 0.01 mg/kg)",Serum Cholesterol % Decrease (ovariectomized rats; dose 0.01 mg/kg),Uterine Weight Increase (ovariectomized rats; dose 0.01 mg/kg),"Uterine Eosinophil (Vmax) (eosinophil peroxidase, Vmaximum) (ovariectomized rats; dose 1.0 mg/kg)",Serum Cholesterol % Decrease (ovariectomized rats; dose 1.0 mg/kg),Uterine Weight Increase (ovariectomized rats; dose 1.0 mg/kg),"Uterine Eosinophil (Vmax) (eosinophil peroxidase, Vmaximum) (ovariectomized rats; dose 10.0 mg/kg)",Serum Cholesterol % Decrease (ovariectomized rats; dose 10.0 mg/kg),Uterine Weight Increase (ovariectomized rats; dose 10.0 mg/kg),Relative binding affinity (RBA) (estrogen receptor),inhibition of breast cancer cell proliferation [1]
"C#C[C@]1(O)CC[C@H]2[C@@H]3CCc4cc(O)ccc4[C@H]3CC[C@@]21C [EE2, 17-a-ethynyl estradiol, reference compound]",substantial and expected increase in eosinophil infiltration,111.2,88.1%,125.8%,caused a decrease in serum cholesterol,substantially greater than the uterine weight of the ovariectomized animals,–,–,–,–,–,–,–,–,–,–,–
"COc1ccc2c3c(sc2c1)C1=CC[C@H](O)[C@@]1(C)CC3 [Example 1, 3β-Hydroxy-8-methoxy-3aβ-methyl-3,3a,4,5-tetrahydro-2H-benz[b]indeno[5,4-d]thiophene]",–,5.4,5%,6.3%,–,–,4.5,30.0%,-4.6%,4.8,27.5%,34.9%,25.2,60.3%,52.7%,–,–
"COc1ccc2c3c(sc2c1)[C@@H]1CC[C@@H](O)[C@]1(C)CC3 [Example 4a, 3α-Hydroxy-8-methoxy-3aα-methyl-2,3,3a,4,5,10bα-hexahydro-1H-benz[b]indeno[5,4-d]thiophene]",–,3.6,-5.5%,10.4%,–,–,–,–,–,3.3,-8.1%,14.8%,2.4,63.8%,37.6%,–,–
"COc1ccc2c3c(sc2c1)[C@H]1CC[C@@H](O)[C@]1(C)CC3 [Example 4b, 3α-hydroxy-8-methoxy-3aα-methyl-2,3,3a,4,5,10bβ-hexahydro-1H-benz[b]indeno[5,4-d]thiophene]",–,3.9,-12%,-2.6%,–,–,–,–,–,3.9,-4.3%,10.7%,30.0,73.1%,116.3%,–,–
"COc1ccc2c3c(sc2c1)[C@@H]1CC[C@@H](O)[C@@]1(C)CC3 [Example 5, 3α-Hydroxy-8-methoxy-3aβ-methyl-2,3,3a,4,5,10bα-tetrahydro-1H-benz[b]indeno[5,4-d]thiophene]",–,3.6,-18.5%,1.7%,–,–,2.1,14.8%,-5.9%,4.5,40.9%,13.7%,18.3,87.0%,103.6%,–,–
"COc1ccc2c3c(sc2c1)[C@H]1CC[C@H](O)[C@]1(C)CC3 [Example 6, 3β-Hydroxy-8-methoxy-3aα-methyl-2,3,3a,4,5,10bβ-tetrahydro-1H-benz[b]indeno[5,4-d]thiophene]",–,3.0,-0.3%,4.8%,–,–,–,–,–,1.2,-4.7%,9.8%,8.1,63.7%,86.9%,–,–
"C[C@]12CCc3c(sc4cc(O)ccc34)[C@H]1CC[C@@H]2O [Example 7, 3β,8-Dihydroxy-3aβ-methyl-2,3,3a,4,5,10bβ-tetrahydro-1H-benz[b]indeno[5,4-d]thiophene]",–,4.8,13%,4.4%,–,–,4.8,24.3%,-3.2%,3.6,45.9%,9.1%,123.0,80.7%,123.0%,11,inhibit breast cancer cell proliferation
"C[C@]12CCc3c(sc4cc(O)ccc34)[C@@H]1CC[C@@H]2O [Example 8, 3β,8-Dihydroxy-3aβ-methyl-2,3,3a,4,5,10bα-tetrahydro-1H-benz[b]indeno[5,4-d]thiophene]",–,4.5,10.6%,1.4%,–,–,4.2,-1%,13.7%,3.0,16.9%,0.2%,14.7,30.7%,48.4%,16,–
"C[C@]12CCc3c(sc4cc(O)ccc34)[C@@H]1CC[C@H]2O [Example 9, 3α,8-Dihydroxy-3aβ-methyl-2,3,3a,4,5,10bα-tetrahydro-1H-benz[b]indeno[5,4-d]thiophene]",–,3.3,12.4%,10.2%,–,–,4.5,5.7%,5.5%,3.9,32.1%,-5.3%,106.5,90.9%,103.1%,9,–
"C[C@@]12CCc3c(sc4cc(O)ccc34)[C@@H]1CC[C@H]2O [Example 10, 3α,8-Dihydroxy-3aα-methyl-2,3,3a,4,5,10bα-tetrahydro-1H-benz[b]indeno[5,4-d]thiophene]",–,–,–,–,–,–,–,–,–,–,–,–,–,–,–,4,–
"C[C@@]12CCc3c(sc4cc(O)ccc34)[C@H]1CC[C@H]2O [Example 11, 3α,8-Dihydroxy-3aα-methyl-2,3,3a,4,5,10bβ-tetrahydro-1H-benz[b]indeno[5,4-d]thiophene]",–,–,–,–,–,–,–,–,–,–,–,–,–,–,–,4,–
